Measured values: PMC3711795 (Nature, 2012)

How the values were obtained:
[1] = target: T1, HSC / FNT3 (hydrosulfide ion channel) (Clostridioides difficile, UniProt Q186B7); settings: 450 µM 14C-formate; pH 8.0; competing permeant anion, competitive
T1 sequence (Q186B7 2-258): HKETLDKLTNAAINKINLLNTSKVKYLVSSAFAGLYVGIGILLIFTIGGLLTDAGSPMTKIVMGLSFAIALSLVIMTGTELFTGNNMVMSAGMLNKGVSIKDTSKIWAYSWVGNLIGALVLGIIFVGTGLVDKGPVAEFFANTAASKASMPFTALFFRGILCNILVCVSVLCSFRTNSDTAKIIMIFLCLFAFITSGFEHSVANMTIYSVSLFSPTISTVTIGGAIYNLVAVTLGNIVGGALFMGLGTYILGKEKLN

[2] = target: hydrosulfide ion channel (HSC) from Clostridium difficile (Clostridium difficile strain 630); test: crystal structure

| Compound | % inhibition at 15 mM [1] [%] | stoichiometry N [2] |
| --- | --- | --- |
| S [HS^−] | 90 | – |
| O=NO [nitrite] | 70 | – |
| hydrosulfide ion channel (HSC) from Clostridium difficile (natural protein) | – | 5 |
